{"source": "paper PMC3222680", "about": "(PLoS ONE, 2011)", "format_in_all_cases": "cell-based", "key": {"αWT α-βY27′A GlyR": {"target": "T1, αWT α-βY27′A GlyR (Homo sapiens, UniProt P23415+P48167, A277S/G282P/I253M/I257A/I264V/I268L/L252M/M248V/M255V/M274P/P278A/Q254G/S259T/Y250F/Y325A)", "T1 construct": "The α R218-Q219 and β R242-Q243 are also the joining sites for chimeras constructed between the ECD and TMD; expressed in transfected cells; host or cells: HEK293 cells (ATCC), pcDNA3.1zeo+", "T1 sequence (P23415 29-449 isoform P23415-2, stated change not applied)": "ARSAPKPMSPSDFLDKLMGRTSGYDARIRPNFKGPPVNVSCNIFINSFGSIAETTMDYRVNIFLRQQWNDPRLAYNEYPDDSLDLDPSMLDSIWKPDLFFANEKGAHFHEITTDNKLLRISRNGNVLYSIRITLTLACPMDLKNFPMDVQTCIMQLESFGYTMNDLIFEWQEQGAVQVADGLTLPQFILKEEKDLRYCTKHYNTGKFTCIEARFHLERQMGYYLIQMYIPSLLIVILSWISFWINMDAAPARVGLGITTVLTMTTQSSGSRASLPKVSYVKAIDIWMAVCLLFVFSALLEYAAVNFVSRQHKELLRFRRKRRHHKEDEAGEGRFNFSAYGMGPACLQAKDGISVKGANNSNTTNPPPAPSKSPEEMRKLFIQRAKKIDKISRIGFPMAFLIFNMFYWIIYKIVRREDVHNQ", "T1 sequence (P23415+P48167 fused with the stated changes)": "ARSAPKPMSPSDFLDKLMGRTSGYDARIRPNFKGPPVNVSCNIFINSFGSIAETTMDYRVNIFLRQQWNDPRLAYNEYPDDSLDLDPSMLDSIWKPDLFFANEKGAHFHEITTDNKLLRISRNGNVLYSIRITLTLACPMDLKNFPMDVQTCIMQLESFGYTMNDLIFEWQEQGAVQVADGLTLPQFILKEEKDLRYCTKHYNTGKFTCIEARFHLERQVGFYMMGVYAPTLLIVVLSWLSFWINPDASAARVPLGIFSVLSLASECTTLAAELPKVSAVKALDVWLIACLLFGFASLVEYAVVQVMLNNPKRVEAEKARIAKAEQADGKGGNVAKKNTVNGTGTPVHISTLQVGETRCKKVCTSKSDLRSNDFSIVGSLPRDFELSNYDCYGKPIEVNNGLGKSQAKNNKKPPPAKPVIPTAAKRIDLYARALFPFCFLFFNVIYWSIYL", "protocol": "(§1) The human GlyR α1 and β subunit cDNAs were subcloned into the pcDNA3.1zeo+ (Invitrogen) or pGEMHE [44] plasmid vectors for expression in HEK293 cells or Xenopus oocytes, respectively. Site-directed mutagenesis and chimera construction were performed using the QuickChange (Stratagene, La Jolla, CA, USA) mutagenesis and multiple-template-based sequential PCR protocols, respectively.\n(§2) The effects of the hyperekplexia-mimicking mutations, K24′A, V25′A and Y27′A, were examined on GlyRs expressed in HEK293 cells (ATCC). Details of the HEK293 cell culture, GlyR expression and electrophysiological recording of the HEK293 cells are described elsewhere. Briefly, HEK293 cells were maintained in DMEM supplemented with 10% fetal bovine serum. Cells were transfected using a calcium phosphate precipitation protocol. When co-transfecting the α1 together with the β or any other chimera subunits, their respective cDNAs were combined in a ratio of 1∶10. In addition, the pEGFP-N1 (Clontech) was co-transfected to facilitate identifying the transfected cells. […] Cells were treated with external Ringer's solution and internal CsCl solution [30]. Cells were voltage-clamped at −40 mV. When the heteromeric GlyRs were expressed, the picrotoxin sensitivity was tested to confirm that the majority of receptors are heteromers, [30].\n(§3) Results are expressed as mean±standard error of the mean of three or more independent experiments. […] Statistical significance was determined using the Student's t-test."}, "αK24′A βWT GlyR": {"target": "T2, αK24′A βWT GlyR (Homo sapiens, UniProt P23415+P48167, K304A)", "T2 construct": "expressed in transfected cells; host or cells: HEK293 (ATCC)", "T2 sequence (P23415 29-449 isoform P23415-2 K304A limits assumed)": "as the sequence (P23415 29-449 isoform P23415-2, stated change not applied) above, with K276A counted along it", "T2 sequence (P48167 23-497)": "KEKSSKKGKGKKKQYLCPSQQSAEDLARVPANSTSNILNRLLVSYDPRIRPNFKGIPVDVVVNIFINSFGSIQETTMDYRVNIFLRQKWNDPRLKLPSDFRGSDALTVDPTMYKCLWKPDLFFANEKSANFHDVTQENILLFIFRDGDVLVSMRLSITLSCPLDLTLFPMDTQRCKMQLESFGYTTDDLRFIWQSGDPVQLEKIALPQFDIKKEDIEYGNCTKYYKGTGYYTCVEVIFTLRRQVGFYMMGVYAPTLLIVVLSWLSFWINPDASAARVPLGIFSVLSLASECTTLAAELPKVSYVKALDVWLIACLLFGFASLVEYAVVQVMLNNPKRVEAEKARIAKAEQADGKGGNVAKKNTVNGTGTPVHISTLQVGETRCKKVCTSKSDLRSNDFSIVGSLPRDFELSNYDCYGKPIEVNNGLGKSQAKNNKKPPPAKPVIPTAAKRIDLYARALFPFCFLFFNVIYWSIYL", "protocol": "as §1, §2, §3"}, "αWT α-βK24′A GlyR": {"target": "T3, αWT α-βK24′A GlyR (Homo sapiens, UniProt P23415+P48167, A277S/G282P/I253M/I257A/I264V/I268L/K322A/L252M/M248V/M255V/M274P/P278A/Q254G/S259T/Y250F)", "T3 construct": "The α R218-Q219 and β R242-Q243 are also the joining sites for chimeras constructed between the ECD and TMD; expressed in transfected cells; host or cells: HEK293 (ATCC)", "T3 sequence (P23415 29-449 isoform P23415-2, stated change not applied)": "as the sequence (P23415 29-449 isoform P23415-2, stated change not applied) above", "T3 sequence (P23415+P48167 fused with the stated changes)": "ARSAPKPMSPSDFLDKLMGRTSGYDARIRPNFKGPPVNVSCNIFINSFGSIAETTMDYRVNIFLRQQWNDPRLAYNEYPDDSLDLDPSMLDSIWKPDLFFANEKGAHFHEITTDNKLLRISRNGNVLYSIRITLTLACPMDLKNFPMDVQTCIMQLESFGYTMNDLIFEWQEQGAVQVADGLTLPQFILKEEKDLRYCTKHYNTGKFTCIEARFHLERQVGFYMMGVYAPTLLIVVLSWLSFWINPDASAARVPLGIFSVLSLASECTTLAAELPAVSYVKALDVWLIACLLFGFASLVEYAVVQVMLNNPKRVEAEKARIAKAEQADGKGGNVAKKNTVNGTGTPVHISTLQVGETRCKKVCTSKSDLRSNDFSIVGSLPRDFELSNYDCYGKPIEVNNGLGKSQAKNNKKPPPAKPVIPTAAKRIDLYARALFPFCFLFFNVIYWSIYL", "protocol": "as §1, §2, §3"}, "αWT αT-βWT GlyR": {"target": "T4, αWT αT-βWT GlyR (Homo sapiens, UniProt P23415+P48167, I259R/K198I/L185M/L189N/Q95A/R196T/R263E/S182A/T188K/T194V/T261H/V256I/V258A)", "T4 construct": "expressed in transfected cells; host or cells: HEK293 (ATCC)", "T4 sequence (P23415 29-449 isoform P23415-2, stated change not applied)": "as the sequence (P23415 29-449 isoform P23415-2, stated change not applied) above", "T4 sequence (P48167 23-497 Q95A/S182A/L185M/T188K/L189N/T194V/R196T/K198I/V256I/V258A/I259R/T261H/R263E)": "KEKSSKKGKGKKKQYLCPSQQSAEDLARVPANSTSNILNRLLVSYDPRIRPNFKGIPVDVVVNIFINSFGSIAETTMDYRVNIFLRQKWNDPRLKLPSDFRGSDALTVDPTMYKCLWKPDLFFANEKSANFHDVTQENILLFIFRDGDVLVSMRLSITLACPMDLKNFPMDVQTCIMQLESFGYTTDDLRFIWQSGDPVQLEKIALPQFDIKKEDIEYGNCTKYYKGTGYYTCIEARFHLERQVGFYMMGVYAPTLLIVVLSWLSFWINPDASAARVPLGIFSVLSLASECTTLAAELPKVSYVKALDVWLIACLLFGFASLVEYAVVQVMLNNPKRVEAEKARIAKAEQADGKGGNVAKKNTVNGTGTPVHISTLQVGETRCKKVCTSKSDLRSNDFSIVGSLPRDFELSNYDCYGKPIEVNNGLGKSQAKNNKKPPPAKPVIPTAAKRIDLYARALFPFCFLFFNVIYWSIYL", "protocol": "as §1, §2, §3"}, "αV25′A αT-βWT GlyR": {"target": "T5, αV25′A αT-βWT GlyR (Homo sapiens, UniProt P23415+P48167, Q95A/V305A)", "T5 construct": "expressed in transfected cells; host or cells: HEK293 (ATCC)", "T5 sequence (P48167 23-497 Q95A/S182A/L185M/T188K/L189N/T194V/R196T/K198I/V256I/V258A/I259R/T261H/R263E, one chain of several)": "as the sequence (P48167 23-497 Q95A/S182A/L185M/T188K/L189N/T194V/R196T/K198I/V256I/V258A/I259R/T261H/R263E) above", "protocol": "as §1, §2, §3"}, "αV25′A β-αWT GlyR": {"target": "T6, αV25′A β-αWT GlyR (Homo sapiens, UniProt P23415+P48167, V305A)", "T6 construct": "The α R218-Q219 and β R242-Q243 are also the joining sites for chimeras constructed between the ECD and TMD; expressed in transfected cells; host or cells: HEK293 (ATCC)", "T6 sequence (P23415 29-449 isoform P23415-2 V305A)": "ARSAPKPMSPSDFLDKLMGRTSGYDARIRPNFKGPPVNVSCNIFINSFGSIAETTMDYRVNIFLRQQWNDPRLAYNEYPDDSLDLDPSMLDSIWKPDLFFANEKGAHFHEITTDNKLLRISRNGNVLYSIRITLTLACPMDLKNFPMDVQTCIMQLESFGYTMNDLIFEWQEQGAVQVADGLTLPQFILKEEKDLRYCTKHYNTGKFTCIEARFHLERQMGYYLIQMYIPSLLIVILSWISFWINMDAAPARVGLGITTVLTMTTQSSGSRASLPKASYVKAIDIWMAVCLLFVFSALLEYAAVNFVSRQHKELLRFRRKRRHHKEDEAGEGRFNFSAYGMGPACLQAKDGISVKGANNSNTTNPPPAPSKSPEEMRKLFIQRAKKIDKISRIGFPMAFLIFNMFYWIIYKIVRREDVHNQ", "T6 sequence (P48167+P23415 with tags, fused parts or gaps P48167:V266M/P48167:F268Y/P48167:M270L/P48167:M271I/P48167:G272Q/P48167:V273M/P48167:A275I/P48167:T277S/P48167:V282I/P48167:L286I/P48167:P292M/P48167:S295A/P48167:A296P/P48167:P300G)": "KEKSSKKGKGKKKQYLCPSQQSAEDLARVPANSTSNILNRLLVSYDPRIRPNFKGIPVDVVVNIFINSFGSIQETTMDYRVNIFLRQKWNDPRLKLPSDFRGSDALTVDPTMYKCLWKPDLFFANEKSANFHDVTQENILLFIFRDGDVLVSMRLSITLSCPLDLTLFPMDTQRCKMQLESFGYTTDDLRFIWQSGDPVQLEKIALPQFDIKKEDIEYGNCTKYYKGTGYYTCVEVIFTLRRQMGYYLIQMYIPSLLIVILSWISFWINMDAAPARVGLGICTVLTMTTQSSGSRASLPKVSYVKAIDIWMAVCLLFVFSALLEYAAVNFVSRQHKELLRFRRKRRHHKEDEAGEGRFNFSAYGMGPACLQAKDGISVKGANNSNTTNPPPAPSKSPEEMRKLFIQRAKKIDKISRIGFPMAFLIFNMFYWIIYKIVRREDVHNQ", "protocol": "as §1\nFor the β-α chimeras used for determining the effect of hyperekplexia-mimicking mutations on α1 β GlyR channel function, the Thr at the M2 6′ position was replaced by a Cys. […] Through such a modification, picrotoxin resistance was used to distinguish the heteromeric α1 β-α GlyR from the homomeric α1 GlyR when the α1 and β-α subunits were co-expressed.\nas §2, §3"}, "[1]": {"conditions": "αWT α-βY27′A, HEK293, with glycine at EC50 of α1 homomer"}, "[2]": {"conditions": "αK24′A βWT, HEK293, with glycine at EC50 of α1 homomer"}, "[3]": {"conditions": "αWT α-βK24′A, HEK293, with glycine at EC50 of α1 homomer"}, "[4]": {"conditions": "αWT αT-βWT, HEK293, with glycine at EC50 of α1 homomer"}, "[5]": {"conditions": "αV25′A αT-βWT, HEK293, with glycine at EC50 of α1 homomer"}, "[6]": {"conditions": "αV25′A β-αWT, HEK293, with glycine at EC50 of α1 homomer"}}, "data": [{"compound": "NCC(=O)O", "note": "[glycine]", "values": [{"measurement": "Imax", "setting": "αWT α-βY27′A GlyR", "result": "6.9±3.1", "unit": "nA"}, {"measurement": "nH", "setting": "αWT α-βY27′A GlyR", "result": "1.3±0.3"}, {"measurement": "Imax", "setting": "αK24′A βWT GlyR", "result": "6.3±1.1", "unit": "nA"}, {"measurement": "nH", "setting": "αK24′A βWT GlyR", "result": "1.8±0.2"}, {"measurement": "Imax", "setting": "αWT α-βK24′A GlyR", "result": "8.0±1.8", "unit": "nA"}, {"measurement": "nH", "setting": "αWT α-βK24′A GlyR", "result": "1.5±0.2"}, {"measurement": "Imax", "setting": "αWT αT-βWT GlyR", "result": "12.0±1.6", "unit": "nA"}, {"measurement": "nH", "setting": "αWT αT-βWT GlyR", "result": "2.0±0.1"}, {"measurement": "Imax", "setting": "αV25′A αT-βWT GlyR", "result": "6.0±1.7", "unit": "nA"}, {"measurement": "nH", "setting": "αV25′A αT-βWT GlyR", "result": "1.4±0.2"}, {"measurement": "Imax", "setting": "αV25′A β-αWT GlyR", "result": "8.9±1.5", "unit": "nA"}, {"measurement": "nH", "setting": "αV25′A β-αWT GlyR", "result": "1.7±0.3"}]}, {"compound": "picrotoxin [PTX]", "values": [{"measurement": "10uM PTX inhibition (%)", "setting": "αWT α-βY27′A GlyR; [1]", "result": "4.9±0.3", "unit": "%"}, {"measurement": "100uM PTX inhibition (%)", "setting": "αWT α-βY27′A GlyR; [1]", "result": "39±5", "unit": "%"}, {"measurement": "10uM PTX inhibition (%)", "setting": "αK24′A βWT GlyR; [2]", "result": "2.2±1.1", "unit": "%"}, {"measurement": "100uM PTX inhibition (%)", "setting": "αK24′A βWT GlyR; [2]", "result": "20±5", "unit": "%"}, {"measurement": "10uM PTX inhibition (%)", "setting": "αWT α-βK24′A GlyR; [3]", "result": "5.6±1.0", "unit": "%"}, {"measurement": "100uM PTX inhibition (%)", "setting": "αWT α-βK24′A GlyR; [3]", "result": "35±4", "unit": "%"}, {"measurement": "10uM PTX inhibition (%)", "setting": "αWT αT-βWT GlyR; [4]", "result": "3.2±0.6", "unit": "%"}, {"measurement": "100uM PTX inhibition (%)", "setting": "αWT αT-βWT GlyR; [4]", "result": "25±6", "unit": "%"}, {"measurement": "10uM PTX inhibition (%)", "setting": "αV25′A αT-βWT GlyR; [5]", "result": "3.7±1.6", "unit": "%"}, {"measurement": "100uM PTX inhibition (%)", "setting": "αV25′A αT-βWT GlyR; [5]", "result": "25±4", "unit": "%"}, {"measurement": "10uM PTX inhibition (%)", "setting": "αV25′A β-αWT GlyR; [6]", "result": "12.0±2.5", "unit": "%"}, {"measurement": "100uM PTX inhibition (%)", "setting": "αV25′A β-αWT GlyR; [6]", "result": "37±6", "unit": "%"}]}]}
